These results are taken from patent publication US9657046B2, “Methods for the treatment and prevention of inflammatory diseases” (Children's Medical Center Corporation, priority 2010, dated 2017).

One test relates to T-bet−/− mice. Nature of the test: OVA-induced AHR in T-bet−/− mice treated with glycolipid at 2 weeks of age. The following applies: 2 wk old T-bet−/− mice; α-C-GalCer 5 μg or PI57 50 μg; AHR measured on day 44. It counts as in vivo, mouse. On the procedure:
In FIGS. 6A-6B, two-week-old BALB/c mice (n=6-8/group) (6A) or Tbet^−/− mice (6B) (n=4-6 per group) received 5 μg […] (cGal), 2 μg α-GalCer, or vehicle. After OVA sensitization and challenge, AHR was measured on day 44. In FIG. 6C, donor mice were treated with α-C-GalCer (5 μg) or vehicle i.p. NKT cells served as donors, as in FIG. 4A (n=4 per group). Lung resistance (left) and cell counts in BAL (right) were assessed. […] In FIG. 6E, mice received PI57 (50 μg), α-GalCer (2 μg), or vehicle i.p., and lungs were examined 1 or 14 days later for CD4 and CD8 expression. In FIG. 6F, absolute numbers of CD4^+ NKT and DN NKT subsets from 6E were assessed. In FIG. 6G, BALB/c mice (n=5-8/group) received PI57 or vehicle i.p. Lung resistance (left) and BAL cells (right) were assessed. In FIG. 6H, BALB/c mice treated with PI57 (50 μg), PBS30 (Sphingomonas glycolipid) (50 μg), or vehicle i.p. were assessed for AHR as in 6G. […] Lung resistance (left) and BAL cells (right) were assessed (n=4 per group). […]
In FIG. 10, NKT cells from α-GalCer or vehicle-treated mice were adoptively transferred to OVA-sensitized BALB/c recipients. AHR was measured after OVA challenge. […] After sensitization and challenge with OVA, AHR was measured on day 44. […]
To induce AHR, BALB/c mice were sensitized with 100 μg of OVA (Sigma-Aldrich) in alum administered i.p (on day 0). […] AHR was assessed on the day after last OVA-challenge. […]

For the next test, the system named is murine NKT cell lines. In words: Mouse NKT cell lines cocultured with BM-derived DCs, cytokine ELISA. Particulars: 48 hours. Type of test: cell-based. On the procedure: In FIG. 7A, NKT cell lines were cocultured with BM-derived DCs (BMDCs) and α-GalCer (100 ng/ml), PI57 (10 μg/ml), or vehicle for 48 hours, with or without pre-incubation with anti-CD1d (10 μg/ml). IFN-γ was measured by ELISA. In FIG. 7B, murine NKT cell lines were cocultured as in 7A with BMDCs from WT, Cd1d^−/−, Myd88^−/−, or Trif^−/− mice. Cells were treated with α-GalCer (100 ng/ml), PI57 (2.5, 5, or 10 μg/ml), PBS30 (1, 2.5, or 5 μg/ml), or vehicle for 48 hours. IFN-γ and IL-4 were measured by ELISA. […] In FIG. 7D, mouse NKT cell lines were stained with PE-labeled CD1d tetramers of PI57 or α-GalCer at 4° C. for 45 minutes or 37° C. for 25 minutes, and with anti-TCRβ-APC antibody. Top: Lymphocytes were gated in the FSC/SSC window. Bottom: Percentage of CD1d tetramer+ cells. […] In FIG. 7G, CD1d Fc-coated Maxisorp plates were loaded with lipid and cultured with 5×10^4 NKT cells. IFN-γ was analyzed by ELISA after 24 hours. Data represent 3 or 5 independent experiments.
To establish mouse NKT cell lines, NKT cells were purified by a two-step sorting strategy using MACS. Spleen cells from BALB/c or BALB/c Vα14Jα18 Tg mice were depleted of T cells, B cells, granulocytes, macrophages and DCs by AutoMacs, then stained with PE conjugated-CD1d tetramer and FITC conjugated-anti-TCRβ mAb, and sorted using a MoFlo cell sorter (Dako). The purity of the sorted cells was >99%. To propagate the cells, sorted NKT cells were cultured in 96-well flat-bottom plates (1×10^5 cells/well) with 5×10^3 bone-marrow derived DC in the presence of murine IL-15 (Pepro Tech). Cells were subcultured and restimulated with fresh DCs once a week.
Mouse or human IL-4 and IFN-γ levels were measured by ELISA, as previously described (20). Mean values of triplicate cultures were shown. Data are representative of two or three independent experiments.
(In an ELISA, binding on a coated surface is turned into a signal by an enzyme label.)

Take `CCCCCCCCCCCCCC(=O)OC[C@H]1O[C@H](O[C@H]2CC[C@@]3(C)C(=CC[C@H]4[C@@H]5CC[C@H]([C@H](C)CCCC(C)C)[C@@]5(C)CC[C@@H]43)C2)[C@H](O)[C@@H](O)[C@@H]1O` [PI57, Cholesteryl 6-O-tetradecanoyl-α-D-glucopyranoside]: the “protection against OVA-induced AHR in T-bet−/− mice” value with T-bet−/− mice is listed as “did not protect against subsequent OVA-induced AHR”. Besides, the “cytokine production with DCs from CD1d−/− mice” value in the test on murine NKT cell lines (BMDCs from Cd1d−/− mice) is given as “failed to support PI57 induced cytokine production”. The “cytokine production with DCs from MyD88−/− or Tri−/− mice” value in the test with murine NKT cell lines (BMDCs from Myd88−/− or Trif−/− mice) is listed as “induced cytokine production”. In addition, in the test on murine NKT cell lines (PI57 10 μg/ml, BMDCs), the “IFN-γ production by NKT cell lines + dendritic cells” value was “induced the production of IFN-γ in a CD1d-restricted manner”. In the test on murine NKT cell lines (PI57 10 μg/ml, anti-CD1d 10 μg/ml), the “cytokine (IFN-γ) production after pre-incubation with anti-CD1d mAb” value is “blocked”. For the same compound, the “IFN-γ and IL-4 production compared to PBS30 or α-GalCer” value in the test with murine NKT cell lines (WT BMDCs, PI57 2.5, 5 or 10 μg/ml) was “induced IFN-γ and less IL-4”.
